Our source for the EC50 values is patent publication US20220298107A1, “SUBSTITUTED UREA DIHYDROOROTATE DEHYDROGENASE INHIBITORS” (Janssen Biotech, Inc., priority 2019, published 2022).

Experiment [1] addresses human DHODH (Homo sapiens, UniProt Q02127). Description: biochemical. As for the experimental part: To detect DHODH enzyme activities, dichloroindophenol (DCIP) is added as the final electron acceptor in the assay. DCIP can accept electrons from the reduced coenzyme Q generated in the assay, or from dihydroorotate (DHO) via flavin mononucleotide (FMN) by binding presumably to the ubiquinone pocket. […] The assay buffer contained […], pH 7.5, 150 mM NaCl, 0.5 mM EDTA, and 0.1% Triton X-100 in MilliQ water. Substrate consisting of 20 mM DHO, 5 mM CoQ6, and 1 mM DCIP in assay buffer, initiates the reaction. […] Absorbance measurements were obtained using the BMG Phera Star plate-reading spectrophotomer. Purified human DHODH was purchased from Proteros (cat. No. PR-0044). Chemicals were purchased from Sigma-Aldrich, Teknova, and Avanti Polar Lipids. Liquid handling was performed using Labcyte Echo and Formulatrix Tempest.

For experiment [2], the system named is MOLM-13 cells. The experiment can be described thus: MOLM-13 Cellular Assay. It counts as cell-based. Conditions: Homo sapiens, MOLM-13, 72 h, read-out: MOLM-13 Cellular Assay EC50 (nM). How it is done:
MOLM-13 cells were obtained from DSMZ and were maintained in RPMI 1640+Glutamax+25 mM HEPES (Invitrogen, catalog number 72400) supplemented with 10% heat inactivated fetal bovine serum (FBS; Invitrogen, catalog number 16140). The day prior to assay set-up, cells were pelleted, resuspended in fresh media, counted, and cells were plated at 0.4×10^6 cell/mL in a T150 flask. On the day of the assay, cells were pelleted, resuspend in fresh media, counted and seeded at 5,000 cells/well in white opaque 96-well tissue culture treated microplates (Perkin Elmer, catalog number 6005680). Cells were exposed to different concentrations of test compounds at 37° C., 5% CO2 for 72 hours immediately after seeding. Cell viability was acquired on a Perkin Elmer Envision 2104 multilabel reader using the CellTiter-Glo assay (Promega) according to the manufacturer's instructions.

human DHODH, sequence (Q02127 whole entry): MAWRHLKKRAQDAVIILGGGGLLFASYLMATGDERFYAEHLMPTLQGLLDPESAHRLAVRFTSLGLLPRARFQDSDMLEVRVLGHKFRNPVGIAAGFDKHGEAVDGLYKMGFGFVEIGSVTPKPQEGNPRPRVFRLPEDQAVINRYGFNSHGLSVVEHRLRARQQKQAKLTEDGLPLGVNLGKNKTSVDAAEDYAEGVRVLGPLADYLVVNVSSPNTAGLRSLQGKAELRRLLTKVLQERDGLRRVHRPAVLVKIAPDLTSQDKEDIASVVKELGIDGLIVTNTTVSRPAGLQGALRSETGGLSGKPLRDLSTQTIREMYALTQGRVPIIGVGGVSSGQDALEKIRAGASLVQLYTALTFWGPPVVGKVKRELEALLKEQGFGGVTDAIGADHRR

For orientation: EC50 means the midpoint of the concentration-response curve. As to `CC(C)NC(=O)Nc1cc(O[C@@H](C)C(F)(F)F)c(C(=O)Nc2c(F)cccc2Cl)cc1F` [Example 9, (S)-N-(2-Chloro-6-fluorophenyl)-5-fluoro-4-(3-isopropylureido)-2-((1,1,1-trifluoropropan-2-yl)oxy)benzamide], the EC50 in experiment [1] was 0.49 µM; in experiment [2] it was 89 nM.
The matching figures for `C[C@H](Oc1cc(NC(=O)N2CCC(CO)C2)c(F)cc1C(=O)Nc1c(F)cccc1Cl)C(F)(F)F` (stereo partly drawn) [Example 13, N-(4-((2-Chloro-6-fluorophenyl)carbamoyl)-2-fluoro-5-(((S)-1,1,1-trifluoropropan-2-yl)oxy)phenyl)-3-(hydroxymethyl)pyrrolidine-1-carboxamide]: 0.95 µM and 220 nM.
The matching figures for `C[C@H](Oc1cc(NC(=O)N(C)CCO)c(F)cc1C(=O)Nc1c(F)cccc1Cl)C(F)(F)F` [Example 18, (S)-N-(2-Chloro-6-fluorophenyl)-5-fluoro-4-(3-(2-hydroxyethyl)-3-methylureido)-2-((1,1,1-trifluoropropan-2-yl)oxy)benzamide]: 0.0026 µM and 1.5 nM.
The matching figures for `C[C@H](Oc1cc(NC(=O)N2CC(O)C2)c(F)cc1C(=O)Nc1c(F)cccc1Cl)C(F)(F)F` [Example 23, (S)-N-(4-((2-Chloro-6-fluorophenyl)carbamoyl)-2-fluoro-5-((1,1,1-trifluoropropan-2-yl)oxy)phenyl)-3-hydroxyazetidine-1-carboxamide]: 0.54 µM and 270 nM.
Regarding `C[C@H](Oc1cc(NC(=O)N2CC(CF)C2)c(F)cc1C(=O)Nc1c(F)cccc1Cl)C(F)(F)F` [Example 25, (S)-N-(4-((2-Chloro-6-fluorophenyl)carbamoyl)-2-fluoro-5-((1,1,1-trifluoropropan-2-yl)oxy)phenyl)-3-(fluoromethyl)azetidine-1-carboxamide], the results for the EC50 in experiment [1] and in experiment [2] were 0.21 µM and 110 nM, respectively.
As to `C[C@H](Oc1cc(NC(=O)N(C)CC#N)c(F)cc1C(=O)Nc1c(F)cccc1Cl)C(F)(F)F` [Example 26, (S)-N-(2-Chloro-6-fluorophenyl)-4-(3-(cyanomethyl)-3-methylureido)-5-fluoro-2-((1,1,1-trifluoropropan-2-yl)oxy)benzamide], the concentration for a half-maximal effect (EC50) in experiment [1] was 7.97 µM; in experiment [2], 170 nM.
The matching figures for `COC1CCN(C(=O)Nc2cc(O[C@@H](C)C(F)(F)F)c(C(=O)Nc3c(F)cccc3Cl)cc2F)C1` (stereo partly drawn) [Example 29, N-(4-((2-Chloro-6-fluorophenyl)carbamoyl)-2-fluoro-5-(((S)-1,1,1-trifluoropropan-2-yl)oxy)phenyl)-3-methoxypyrrolidine-1-carboxamide]: 0.085 µM and 40 nM.
Turning to `C[C@H](Oc1cc(NC(=O)N2CCC(O)C2)c(F)cc1C(=O)Nc1c(F)cccc1Cl)C(F)(F)F` (stereo partly drawn) [Example 30, N-(4-((2-Chloro-6-fluorophenyl)carbamoyl)-2-fluoro-5-(((S)-1,1,1-trifluoropropan-2-yl)oxy)phenyl)-3-hydroxypyrrolidine-1-carboxamide], the results for the concentration for a half-maximal effect (EC50) in experiment [1] and in experiment [2] were 0.12 µM and 57 nM, respectively.
As for `C[C@H](Oc1cc(NC(=O)N2CCC(F)C2)c(F)cc1C(=O)Nc1c(F)cccc1Cl)C(F)(F)F` (stereo partly drawn) [Example 32, N-(4-((2-Chloro-6-fluorophenyl)carbamoyl)-2-fluoro-5-(((S)-1,1,1-trifluoropropan-2-yl)oxy)phenyl)-3-fluoropyrrolidine-1-carboxamide], the figures for the EC50 in experiment [1] and in experiment [2] were 0.013 µM and 5.8 nM, respectively.
The corresponding values for `Cc1ccnc(Cl)c1NC(=O)c1cc(F)c(NC(=O)N2CCC[C@@H]2CO)cc1O[C@@H](C)C(F)(F)F` [Example 36, (R)-N-(4-((2-Chloro-4-methylpyridin-3-yl)carbamoyl)-2-fluoro-5-(((S)-1,1,1-trifluoropropan-2-yl)oxy)phenyl)-2-(hydroxymethyl)pyrrolidine-1-carboxamide] are 0.0026 µM and 6.6 nM.
The matching figures for `Cc1n[nH]c(Cl)c1NC(=O)c1cc(F)c(NC(=O)N2CCC[C@@H]2CO)cc1O[C@@H](C)C(F)(F)F` [Example 37, (R)-N-(4-((5-Chloro-3-methyl-1H-pyrazol-4-yl)carbamoyl)-2-fluoro-5-(((S)-1,1,1-trifluoropropan-2-yl)oxy)phenyl)-2-(hydroxymethyl)pyrrolidine-1-carboxamide]: 0.0007 µM and 11 nM.
As for `COc1nccc(C)c1NC(=O)c1cc(F)c(NC(=O)N2CCC[C@@H]2CO)cc1O[C@@H](C)C(F)(F)F` [Example 38, (R)-N-(2-Fluoro-4-((2-methoxy-4-methylpyridin-3-yl)carbamoyl)-5-(((S)-1,1,1-trifluoropropan-2-yl)oxy)phenyl)-2-(hydroxymethyl)pyrrolidine-1-carboxamide], the values for the EC50 in experiment [1] and in experiment [2] were 0.00017 µM and 16 nM, respectively.
Consider `COc1ncc(C)c(NC(=O)c2cc(F)c(NC(=O)N3CCC[C@@H]3CO)cc2O[C@@H](C)C(F)(F)F)c1Cl` [Example 39, (R)-N-(4-((3-Chloro-2-methoxy-5-methylpyridin-4-yl)carbamoyl)-2-fluoro-5-(((S)-1,1,1-trifluoropropan-2-yl)oxy)phenyl)-2-(hydroxymethyl)pyrrolidine-1-carboxamide], for which the EC50 in experiment [1] was 0.0026 µM; in experiment [2], 3.5 nM.
The matching figures for `COc1ncc(C)c(NC(=O)c2cc(F)c(NC(=O)N3CCC[C@@H]3CO)cc2O[C@@H](C)C(F)(F)F)c1C` [Example 40, (R)-N-(2-Fluoro-4-((2-methoxy-3,5-dimethylpyridin-4-yl)carbamoyl)-5-(((S)-1,1,1-trifluoropropan-2-yl)oxy)phenyl)-2-(hydroxymethyl)pyrrolidine-1-carboxamide]: 0.0036 µM and 25 nM.
The corresponding values for `CCN(CC(F)F)C(=O)Nc1cc(O[C@@H](C)C(F)(F)F)c(C(=O)Nc2c(C)ccnc2Cl)cc1F` [Example 41, (S)-N-(2-Chloro-4-methylpyridin-3-yl)-4-(3-(2,2-difluoroethyl)-3-ethylureido)-5-fluoro-2-((1,1,1-trifluoropropan-2-yl)oxy)benzamide] are 0.017 µM and 37 nM.
The corresponding values for `CCN(CC(F)F)C(=O)Nc1cc(O[C@@H](C)C(F)(F)F)c(C(=O)Nc2c(C)n[nH]c2Cl)cc1F` [Example 42, (S)-N-(5-Chloro-3-methyl-1H-pyrazol-4-yl)-4-(3-(2,2-difluoroethyl)-3-ethylureido)-5-fluoro-2-((1,1,1-trifluoropropan-2-yl)oxy)benzamide] are 0.003 µM and 11 nM.
As for `CCN(CC(F)F)C(=O)Nc1cc(O[C@@H](C)C(F)(F)F)c(C(=O)Nc2c(C)ccnc2OC)cc1F` [Example 43, (S)-4-(3-(2,2-difluoroethyl)-3-ethylureido)-5-fluoro-N-(2-methoxy-4-methylpyridin-3-yl)-2-((1,1,1-trifluoropropan-2-yl)oxy)benzamide], the EC50 in experiment [1] stood at 0.024 µM; in experiment [2] it was 30 nM.
The matching figures for `CCN(CC(F)F)C(=O)Nc1cc(O[C@@H](C)C(F)(F)F)c(C(=O)Nc2c(C)cnc(OC)c2Cl)cc1F` [Example 44, (S)-N-(3-Chloro-2-methoxy-5-methylpyridin-4-yl)-4-(3-(2,2-difluoroethyl)-3-ethylureido)-5-fluoro-2-((1,1,1-trifluoropropan-2-yl)oxy)benzamide]: 0.007 µM and 9.6 nM.
Regarding `CCN(CC(F)F)C(=O)Nc1cc(O[C@@H](C)C(F)(F)F)c(C(=O)Nc2c(C)cnc(OC)c2C)cc1F` [Example 45, (S)-4-(3-(2,2-Difluoroethyl)-3-ethylureido)-5-fluoro-N-(2-methoxy-3,5-dimethylpyridin-4-yl)-2-((1,1,1-trifluoropropan-2-yl)oxy)benzamide], the concentration for a half-maximal effect (EC50) in experiment [1] amounted to 0.027 µM; in experiment [2], 63 nM.
